# Experimental data as given in US20030003114A1, “Enzyme-based anti-cancer compositions and methods” (priority 2001, published 2003).
# Experiments:
# [1] = test system: 24 JK murine sarcoma cells; experiment: Syngeneic tumor model, 24 JK murine sarcoma in C57BL/6 mice; set-up: anti-tumor effectiveness: dose or concentration left out as unconfirmed
# Procedure: In the case where a hexosaminidase is tested for anti-tumor activity on murine tumor cells or tissues, a syngeneic tumor model is used. In this model, tumor cells or tissues are implanted in C57BL/6 mice. As in the SCID mouse model described above, the implanted tumors are allowed to grow to a size of approximately 50 to 100 mm^3 before various amounts of the hexosaminidase are administered to the animal, by any of the means described above. The decrease in tumor size or, preferably, elimination of the tumor from the mouse, is subsequently observed.
# In both the SCID and C57BL/6 models described above, the anti-tumor activity of a hexosaminidase is compared to the anti-tumor activity of a known anti-tumor agent. For example, mice containing tumors are treated with doxorubicin. A suitable dose of doxorubicin is 5 mg per kg of body weight of the mice.
# A syngeneic tumor model, C57BL/6 mice carrying implanted 24 JK murine sarcoma cells, was used in these studies. The cells were injected subcutaneously into the mouse flank. Five days later, 5 units of chitinase was injected intraperitoneally (IP) into the mouse. Into another mouse was injected 5 mg doxorubicin per kilogram of mouse weight IP on days 5, 7 and 9. Into a third mouse was injected saline on day 5 (i.e., negative control).
# [2] = test system: spleen cells from a normal mouse; experiment: MTT dye reduction viability assay, normal cells; assay type: cell-based; details: concentrations up to 1.0 units per ml of culture medium, 3 days, FIG. 1
# Description: Different concentrations of the hexosaminidases are used. […] One method is the MTT assay.
# Large cell lymphoma = experiment: Human lymphoma xenograft in SCID mice, tumor size; assay type: in vivo; details: 5 units injected into the tumor (day 1), over a period of 7 days, FIG. 2
# Procedure: (§1) The effect of hexosaminidases on survival of tumor cells is also tested by administering hexosaminidases to experimental animals that have various tumors. Preferably, the tumors are human tumors or cancer xenograft tissues and the experimental animal is a SCID mouse. Good results have been obtained by transplanting tumor cells or tissues subcutaneously in the animal or behind the fat pad of the mouse. After the tumor cells or tissues are transplanted into the animal, the tumors cells grow and divide. When the tumors reach a visible size (e.g., 0.5-0.8 cm^3) in the SCID mice, a hexosaminidase is dissolved in PBS and various amounts of the hexosaminidase are injected into the tumor (i.e., intratumor injection), injected intraperitoneally (IP) into the animal, or intravenously (IV) into the animal. Single or multiple injections are used. The size of the tumor is subsequently measured to determine the effect of the enzyme on tumor growth and survival. A decrease in size of the tumors is indicative of anti-tumor activity of the hexosaminidase. Preferably, administration of the hexosaminidase results in a significant size reduction of the tumor. […]
# Large cell lymphoma was obtained from patients as a biopsy sample and a 0.1 cm^3 piece of the biopsy was implanted into SCID mice. […] Subsequently, the size of the tumors was measured daily.
# [3] = test system: Ductal carcinoma from breast; experiment: Human breast cancer xenograft in SCID mice, tumor size; assay type: in vivo; details: 5 units injected into the tumor (day 1)
# Procedure: as §1
# Ductal carcinoma from breast was obtained from patients as a biopsy sample and a 0.1 cm^3 piece of the biopsy was implanted into SCID mice. […] Subsequently, the size of the tumors was measured daily.
# Malignant melanoma = experiment: Human malignant melanoma xenograft in SCID mice, tumor size; assay type: in vivo; details: 5 units injected into the tumor (day 1)
# Procedure: as §1
# Malignant melanoma was obtained from patients as a biopsy sample and a 0.1 cm^3 piece of the biopsy was implanted into SCID mice. […] Subsequently, the size of the tumors was measured daily.
# [4] = Observation of treated mice for visible signs of systemic toxicity; assay type: in vivo; details: general statement; high chitinase levels do not appear to cause toxicity in normal tissues
# Description: Such toxicity is compared with toxicity that is present in control animals, animals administered doxorubicin for example.
# [5] = test system: Moderately differentiated adenocarcinoma from prostate; experiment: Human prostate cancer xenograft in SCID mice, tumor size; assay type: in vivo; details: 5 units injected into the tumor (day 1), FIG. 2
# Procedure: as §1
# Moderately differentiated adenocarcinoma from prostate was obtained from patients as a biopsy sample and a 0.1 cm^3 piece of the biopsy was implanted into SCID mice. […] Subsequently, the size of the tumors was measured daily.
# [6] = test system: human oral carcinoma KB cells; details: 3 days culture at 37° C., MTT, FIG. 1
# Procedure: Good results have been obtained by testing the effect of hexosaminidases on the viability of cultured normal and tumor cells is tested by culturing normal cells (e.g., spleen cells from a mouse) and tumor cells (e.g., human oral carcinoma KB cells) in vitro and then adding various concentrations of the hexosaminidase to the cells. Different concentrations of the hexosaminidases are used. At various times after addition of the hexosaminidase, the viability of the cells is determined using one of a variety of methods. One method is the MTT assay. In this assay, cells are exposed to MTT, 3-(4,5-dimethylthiazol-2-yl)2,5-diphenyltetrazolium bromide, which is taken into the cells and reduced by mitochondrial dehydrogenase to a purple formazan, a large molecule which is unable to pass through intact cell membranes, and therefore accumulates in healthy cells. The ability of cells to reduce MTT is an indication of mitochondrial integrity and activity, which is interpreted as a measure of viability.
# Fifty thousand spleen cells from a normal mouse, or human oral carcinoma KB cells were cultured. […] This product was dissolved in a solvent (95% ethanol:DMSO; 1:1), added to the cells and the absorbance (540 nm) was determined. The absorbance of the formazan is linearly proportional to the number of viable cells in the culture.
# [7] = test system: Poorly differentiated carcinoma from human bladder; experiment: Human bladder cancer xenograft in SCID mice, tumor size; assay type: in vivo; details: 5 units injected into the tumor (day 1)
# Procedure: as §1
# Poorly differentiated carcinoma from human bladder was obtained from patients as a biopsy sample and a 0.1 cm^3 piece of the biopsy was implanted into SCID mice. […] Subsequently, the size of the tumors was measured daily.
# [8] = test system: Adenocarcinoma from ovaries; experiment: Human ovarian cancer xenograft in SCID mice, tumor size; assay type: in vivo; details: 5 units injected into the tumor (day 1)
# Procedure: as §1
# Adenocarcinoma from ovaries was obtained from patients as a biopsy sample and a 0.1 cm^3 piece of the biopsy was implanted into SCID mice. […] Subsequently, the size of the tumors was measured daily.
# melanoma cells = experiment: Cultured tumor cells treated with chitinase, cellular damage (electron micrographs); assay type: cell-based, human; details: within hours of treatment, ultimately leading to cell death
# [9] = test system: Moderately differentiated squamous cell carcinoma from human lung; experiment: Human lung cancer xenograft in SCID mice, tumor size; assay type: in vivo
# Procedure: as §1
# Moderately differentiated squamous cell carcinoma from human lung was obtained from patients as a biopsy sample and a 0.1 cm^3 piece of the biopsy was implanted into SCID mice. […] Subsequently, the size of the tumors was measured daily. […]
# [10] = test system: breast cancer MCF-7 cells; experiment: Cultured tumor cells treated with chitinase, cellular damage (electron micrographs); assay type: cell-based, human; details: within hours of treatment, ultimately leading to cell death
# [11] = Chitinase levels in blood of mice after different routes of administration (4-mu-chitotrioside assay of plasma); assay type: in vivo; details: mouse
# Procedure: Thirty-five mg of chitinase (Sigma C-6139) was dissolved in 1.5 ml of PBS. One-half ml of the chitinase solution was injected into each of 3 mice. One mouse was injected intraperitoneally (IP), one was injected intravenously (IV), and one mouse was injected subcutaneously (SC). A fourth mouse was injected with saline as a control. At various times after injection, 15-20 μl of blood was taken from the tail vein of each mouse and immediately mixed with a sodium-EDTA solution (pH 7.4). The cells were centrifuged from the blood and 5 μl of plasma was used in a chitinase assay. In the chitinase assay, 4-methylumbelliferyl-β-D-N, N′, N″-triacetyl-chitotriose (4-mu-chitotrioside) was used as the substrate for chitinase. The plasma sample, in 100 μl of saline, was mixed with 100 μl of 22 μM 4-mu-chitotrioside solution in 0.2 M citric acid buffer (pH 5.2) and incubated in a 37° C. water bath for 15 min. At the end of the incubation, 3.0 ml of 0.3 M glycine buffer (pH 10.6) was added to the mixture to stop the reaction. The fluorescence of the solution at 460 nm was then measured after excitation at 355 nm.
# [12] = test system: LNCaP prostate cancer cells; experiment: LNCaP prostate cancer cell tumors in SCID mice; assay type: in vivo, human
# Procedure: The effect of hexosaminidases on survival of tumor cells is also tested by administering hexosaminidases to experimental animals that have various tumors. Preferably, the tumors are human tumors or cancer xenograft tissues and the experimental animal is a SCID mouse. Good results have been obtained by transplanting tumor cells or tissues subcutaneously in the animal or behind the fat pad of the mouse. After the tumor cells or tissues are transplanted into the animal, the tumors cells grow and divide. When the tumors reach a visible size (e.g., 0.5-0.8 cm^3) in the SCID mice, a hexosaminidase is dissolved in PBS and various amounts of the hexosaminidase are injected into the tumor (i.e., intratumor injection), injected intraperitoneally (IP) into the animal, or intravenously (IV) into the animal. Single or multiple injections are used. The size of the tumor is subsequently measured to determine the effect of the enzyme on tumor growth and survival. A decrease in size of the tumors is indicative of anti-tumor activity of the hexosaminidase. Preferably, administration of the hexosaminidase results in a significant size reduction of the tumor. More preferably, the hexosaminidase eliminates the tumor from the SCID mouse. Preferably, such animals will remain free from tumors in the future.
# One million LNCaP prostate cancer cells were injected into SCID mice. After the tumors grew to a size of between 0.3-0.6 cm^3, 5 units of Streptomyces chitinase was injected intratumorally, intraperitoneally and intravenously, in separate mice. […] All untreated animals died within 3 months.
# [13] = test system: Merkel cell cancer (neuroendocrine skin cancer); experiment: Merkel cell cancer xenograft in SCID mice, tumor size; assay type: in vivo, human; details: 5 units injected into the tumor (day 1)
# Procedure: as §1
# Merkel cell cancer (neuroendocrine skin cancer) was obtained from patients as a biopsy sample and a 0.1 cm^3 piece of the biopsy was implanted into SCID mice. […] Subsequently, the size of the tumors was measured daily.
# [14] = test system: Moderately differentiated adenocarcinoma from human colon; experiment: Human colon cancer xenograft in SCID mice, tumor size; assay type: in vivo; details: 5 units injected into the tumor (day 1), FIG. 2
# Procedure: as §1
# Moderately differentiated adenocarcinoma from human colon was obtained from patients as a biopsy sample and a 0.1 cm^3 piece of the biopsy was implanted into SCID mice. […] Subsequently, the size of the tumors was measured daily.
# [15] = test system: prostate cancer LNCaP cells; experiment: Cultured tumor cells treated with chitinase, cellular damage; assay type: cell-based, human; details: within hours of treatment, ultimately leading to cell death
# fibrosarcoma = experiment: Human fibrosarcoma xenograft in SCID mice, tumor size; assay type: in vivo; details: 5 units injected into the tumor (day 1)
# Procedure: as §1
# A fibrosarcoma was obtained from patients as a biopsy sample and a 0.1 cm^3 piece of the biopsy was implanted into SCID mice. […] Subsequently, the size of the tumors was measured daily.
# lung cancer cells = experiment: Cultured tumor cells treated with chitinase, cellular damage (electron micrographs); assay type: cell-based, human; details: within hours of treatment, ultimately leading to cell death
# [16] = 5 units intratumorally, intraperitoneally and intravenously, in separate mice
compound,measurement,setting,value
"COc1cccc2c1C(=O)c1c(O)c3c(c(O)c1C2=O)C[C@@](O)(C(=O)CO)C[C@@H]3O[C@H]1C[C@H](N)[C@H](O)[C@H](C)O1 [doxorubicin, reference compound]",anti-tumor effectiveness,[1],generally ineffective
same,outcome of mice evaluated,"[1]; 5 mg per kilogram IP on days 5, 7 and 9",eventually died from drug toxicity or progressive tumor growth
same,course of tumor growth,[1]; 3 intraperitoneal injections of 5 mg/kg (maximum tolerated dose),growth attenuation followed by a resumption of progressive growth
chitinase,effect on the viability of the normal mouse spleen cells,[2],little effect
same,change of lymphoma size,Large cell lymphoma,reduced in size
same,elimination of breast tumors compared with human colon cancer of Example 2,[3],as effectively eliminated
same,elimination of melanomas compared with human colon cancer of Example 2,Malignant melanoma,as effectively eliminated
same,systemic toxicity,[4],without significant systemic toxicity
same,dose dependence of anti-tumor activity,"[1]; additional studies, increased with increasing dosages",dose dependent
same,regression of established tumors,[1]; intraperitoneal injection of 5 Units on day 5 and day 6,complete tumor regression
same,day until after which detectable growth of 24 JK sarcoma tumor cells was inhibited,"[1]; single IP injection of 5 units five days after cell injection, FIG. 5",> 12 days
same,regression of established tumors,[1]; single intraperitoneal injection of 10 Units on day 5,complete tumor regression
same,period over which prostate tumors were eliminated from the mouse,[5],7 days
same,concentrations at which chitinase efficiently kills the tumor cells,[6],0.025 to 0.05 units of chitinase per ml of culture medium
same,elimination of bladder tumors compared with human colon cancer of Example 2,[7],as effectively eliminated
same,elimination of ovarian tumors compared with human colon cancer of Example 2,[8],as effectively eliminated
same,cellular damage after chitinase treatment,melanoma cells,significant cellular damage
same,elimination of lung tumors compared with human colon cancer of Example 2,"[9]; 5 units injected into the tumor (day 1), SCID mice",as effectively eliminated
same,tumor size after chitinase treatment,"[9]; 10 days after a single injection of 5 units, FIG. 3b",substantially reduced in size
same,cellular damage after chitinase treatment,[10],significant cellular damage
same,maximum blood levels relative to those found in IV injection,[11]; IP injection,less than half
same,time at which maximum blood levels were reached,[11]; IP injection,2 to 3 min
same,time until which blood levels tapered off,[11]; IP injection,40 min
same,time until which maximum levels remained,[11]; IP injection,7 to 8 min
same,time at which little chitinase was left in the blood,[11]; IV injection,20 min
same,levels of chitinase in the blood immediately after injection,"[11]; IV injection, within 1 min.",very high levels
same,maximum blood levels relative to blood levels found after IP injection,[11]; SC injection,a third
same,time at which maximum blood levels were reached,[11]; SC injection,2 to 3 min
same,time until which blood levels tapered off,[11]; SC injection,40 min
same,histological staining of tumors compared to saline control tumors,[12]; [16],extensive cellular damage and morphological changes
same,time after injection at which tumor necrosis was visible,[12]; [16],within hours
same,tumor regression,[12]; [16],complete tumor regression
same,survival of treated animals without tumor recurrence,"[12]; 5 units, all untreated animals died within 3 months",more than one year
same,development of resistance of the tumors to the enzyme,[12]; additional studies,no indication of development of resistance
same,tumor elimination with an additional administration of chitinase after the first,[12]; additional studies,more rapidly eliminated
same,elimination of Merkel cell tumors,[13],eliminated
same,period over which human colon cancer was effectively eliminated from the animals,[14],2 days
same,cellular damage after chitinase treatment,[15],significant cellular damage
same,elimination of fibrosarcomas compared with human colon cancer of Example 2,fibrosarcoma,as effectively eliminated
same,cellular damage after chitinase treatment,lung cancer cells,significant cellular damage
